Assay results: paper PMC1283537, “Systematic Discovery of New Recognition Peptides Mediating Protein Interaction Networks” (PLoS Biology, 2005)
Where no end group is shown, it is not given here.

Assays:
[1] = test system: Cdlc2 (Dynein light chain 2); assay: Fluorescence polarization binding of FITC-labelled peptides to Cdlc2; set-up: species or system Drosophila melanogaster; conditions: FITC-labelled peptide 10 nM, PBS pH 7.4, protein concentrations 5–400 μM
Translin = target: T1, Translin (Drosophila melanogaster, UniProt Q7JVK6); assay: Fluorescence polarization binding of FITC-labelled peptides to Translin; conditions: FITC N-terminal labeled peptide 10 nM in PBS pH 7.4, 5 min at room temperature, non-linear regression on three independent experiments
T1 sequence (Q7JVK6 1-235): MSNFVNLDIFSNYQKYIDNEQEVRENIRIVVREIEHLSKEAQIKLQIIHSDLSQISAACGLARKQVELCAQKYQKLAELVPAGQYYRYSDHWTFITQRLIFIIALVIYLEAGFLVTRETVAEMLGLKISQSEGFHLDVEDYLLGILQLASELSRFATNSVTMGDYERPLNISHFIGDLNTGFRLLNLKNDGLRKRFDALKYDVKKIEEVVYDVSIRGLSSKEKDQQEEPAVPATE

abl-SH3 domain = target: T2, abl-SH3 domain (Homo sapiens, UniProt P00519); assay: Fluorescence polarization preliminary test with abl-SH3 binding peptide; conditions: FITC N-terminal labeled peptide
T2 construct: preparation of human abl-SH3 domain [9]; made in house

[2] = target: T3, protein phosphatase 1 (PP1) (Homo sapiens, UniProt P36873); assay: Fluorescence polarization binding of FITC-labelled peptides to PP1; set-up: species or system H. sapiens
T3 construct: made in house; host or cells: E. coli BL21(DE3)
T3 sequence (P36873 whole entry): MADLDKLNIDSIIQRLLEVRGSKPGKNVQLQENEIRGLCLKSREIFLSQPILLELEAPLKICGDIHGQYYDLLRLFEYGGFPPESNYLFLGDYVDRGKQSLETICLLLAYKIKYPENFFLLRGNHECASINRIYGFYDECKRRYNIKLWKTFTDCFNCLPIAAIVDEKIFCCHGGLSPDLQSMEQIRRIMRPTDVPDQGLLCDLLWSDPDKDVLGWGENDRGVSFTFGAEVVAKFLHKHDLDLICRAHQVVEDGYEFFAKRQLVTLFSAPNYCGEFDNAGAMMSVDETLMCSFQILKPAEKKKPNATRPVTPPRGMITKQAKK

T2 sequence (P00519 61-121 limits assumed): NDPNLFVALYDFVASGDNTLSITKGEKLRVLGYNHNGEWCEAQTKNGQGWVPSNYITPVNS

ERAAAAENA [mutant of the Cdlc2 native peptide, motif positions mutated to Alanine]
binding to Cdlc2 [1]: No binding

PFGTQTSPP [CG32130/215-223, additional peptide containing the canonical TQT motif, reference compound]
binding to Cdlc2 [1]: No binding

VSASPAAVAAPV (also: FITC label, position not given here) [Mutant]
Kd (Translin): > 300 µM

ERAIQTENA [CG33213/104-112, Cdlc2 native peptide with the IQTE variant motif]
binding to Cdlc2 [1]: No binding

GAPTYSPPPPP [GAPTYSPPPPP]
Kd (abl-SH3 domain): 3 ± 0.4 µM

VSASPAAVAAPV [Mutant]
Kd ([2]; FITC N-terminal labeled peptide 10 nM in PBS pH 7.4, 5 min at room temperature, normalized to extrapolated Bmax, non-linear regression, three independent experiments): 65 ± 14 µM | specific binding to PP1 ([2]; result in words): retain some affinity
